These are literature values, as cited in paper PMC6738313 (The Oncologist, 2019).

Data set [1] has as its system first-line poor- or intermediate-risk patients with mRCC. The note with it: CABOSUN.
The subject of data set [2] is patients with metastatic renal cell carcinoma.
Another data set concerns CYP3A4/5. The settings on record: clinical data.

Take `COc1cc2nccc(Oc3ccc(NC(=O)C4(C(=O)Nc5ccc(F)cc5)CC4)cc3)c2cc1OC` [cabozantinib]: the “Estimated progression-free survival (PFS)” value in data set [1] (95% CI 6.2–8.8) is recorded as 8.2 months. The “Objective response rate (ORR)” value in data set [1] (first-line poor- or intermediate-risk patients with mRCC) is given as 46%.
`CNC(=O)c1ccccc1Sc1ccc2c(/C=C/c3ccccn3)n[nH]c2c1` [Axitinib]: in data set [2] (axitinib single agent, first-line therapy, 95% CI 7.2–12.1), the “Progression-free survival (PFS)” value is reported as 10.1 months. Moreover, the “Objective response rate (ORR)” value in data set [2] (single-agent axitinib, first-line mRCC, phase III trial versus sorafenib) is 32%. Moreover, in the data set on CYP3A4/5, the Metabolic pathway entry is given as “primarily metabolized by CYP3A4/5”.
Regarding `C[C@@H](Oc1cc(-c2cnn(C3CCNCC3)c2)cnc1N)c1c(Cl)ccc(F)c1Cl` [crizotinib, Crizotinib], in the data set with CYP3A4/5, the “CYP3A4/5 inhibition (classification)” value is “moderate time‐dependent CYP3A4/5 inhibitor”.
